Here are results for 18 compounds from ChEMBL document CHEMBL1143652, “Joys of molecules. 2. Endeavors in chemical biology and medicinal chemistry” (J Med Chem, 2005).

Experiment [1] has as its system 1A9. As to the kind of experiment: Inhibitory concentration against human 1A9 ovarian carcinoma cells. It is filed as functional, cell-based.
The subject of experiment [2] is KB 3-1. As to the kind of experiment: Cytotoxicity against KB-31 human epidermoid cancer cells. It is filed as functional, cell-based.
Experiment [3] concerns KB 3-1. As to the kind of experiment: Cytotoxicity against KB3-1 human epidermoid cancer cells. It is filed as functional, cell-based.
Experiment [4] has as its target Polyunsaturated fatty acid 5-lipoxygenase (Homo sapiens) (UniProt P09917). Nature of the experiment: Inhibitory concentration against 5-lipoxygenase.
Experiment [5] deals with Enterococcus faecium. As to the kind of experiment: Minimum inhibitory concentration against vancomycin resistant Enterococcus faecium. It is filed as functional.
Experiment [6] has as its target Protein kinase C (PKC). As to the kind of experiment: Inhibitory activity against protein kinase C. It is filed as protein assay.
For experiment [7], the target named is cAMP-dependent protein kinase (PKA) (Homo sapiens, UniProt P22694+P17612+P22612). As to the kind of experiment: Inhibitory constant against the protein kinase A. Type of experiment: protein assay.
For experiment [8], the species on record is Felis catus. Nature of the experiment: Inhibition of LTC4 and LTD4 production in cat lung at 5 mM. It is filed as functional.
The subject of experiment [9] is Staphylococcus aureus. As to the kind of experiment: Minimum inhibitory concentration against methicillin resistant Staphylococcus aureus (MRSA). Type of experiment: functional.
Experiment [10] has as its system 1A9. Nature of the experiment: Cytotoxicity against 1A9 ovarian cancer cells. It is filed as functional, cell-based. The settings on record: Homo sapiens.
Experiment [11] deals with Staphylococcus aureus. Nature of the experiment: Minimum inhibitory concentration against methicillin resistant Staphylococcus aureus (MRSA); range is 3-12 ug/mL. Type of experiment: functional.
[12] abbreviates: Staphylococcus aureus, read-out: MIC.

pIC50: −log10 of the molar value. Converted amounts (≈) assume the structure as drawn.

Chain of Polyunsaturated fatty acid 5-lipoxygenase (Homo sapiens) (P09917 whole entry): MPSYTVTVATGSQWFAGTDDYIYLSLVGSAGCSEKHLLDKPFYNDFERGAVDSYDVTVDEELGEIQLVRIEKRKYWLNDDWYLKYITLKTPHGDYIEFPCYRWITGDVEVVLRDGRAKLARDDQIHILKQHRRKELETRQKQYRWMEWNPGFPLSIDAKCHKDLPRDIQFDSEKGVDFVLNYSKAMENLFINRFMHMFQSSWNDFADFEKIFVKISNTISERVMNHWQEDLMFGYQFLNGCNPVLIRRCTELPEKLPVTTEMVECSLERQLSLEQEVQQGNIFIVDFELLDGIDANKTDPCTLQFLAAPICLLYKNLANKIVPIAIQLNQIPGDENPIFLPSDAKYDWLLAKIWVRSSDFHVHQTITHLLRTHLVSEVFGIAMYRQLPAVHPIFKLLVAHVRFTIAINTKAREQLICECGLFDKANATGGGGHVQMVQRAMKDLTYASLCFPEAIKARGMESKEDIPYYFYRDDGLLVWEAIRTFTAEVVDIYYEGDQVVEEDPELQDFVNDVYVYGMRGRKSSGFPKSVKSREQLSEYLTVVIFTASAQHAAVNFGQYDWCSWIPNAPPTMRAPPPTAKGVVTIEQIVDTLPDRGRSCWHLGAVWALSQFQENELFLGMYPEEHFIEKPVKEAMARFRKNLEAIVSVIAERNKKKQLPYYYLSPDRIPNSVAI

For `COCn1c(Cl)c2c3c(cccc31)-c1cccc3c1OC[C@@]3(c1ccccc1)c1oc(C)nc1-c1nc(Cl)c-2o1`, the negative-log IC50 (pIC50) – broadly, the IC50 on a negative log10 scale, so that one unit is a factor of ten – in experiment [1] is 5.44.
Take `CC(C)=CCc1c2c(c(O)c3c1O[C@]14C(=C[C@@H]5C[C@H]1C(C)(C)OC4(CC=C(C)C)C5=O)C3=O)C=CC(C)(C)O2`: the pIC50 in experiment [2] and in experiment [3] was 5.08 throughout.
`CCCCC/C=C\C\C=C/C=C/C=C/[C@@H]1C[C@H]1CCCC(=O)O`: the ID50 in experiment [4] stood at 44 µM.
On the same count and under the same terms, under `CCCCC/C=C/C\C=C/C=C/C=C/[C@@H]1C[C@H]1CCCC(=O)OC` stands 6 µM.
Consider `CC(C)=CCCC1(C)C=Cc2c(O)c3c(c(CC=C(C)C)c2O1)O[C@]12C(=CC4C[C@H]1C(C)(C)OC2(CC=C(C)C)C4=O)C3=O` (stereo not given in full) [GAMBOGIN], for which the pIC50 in [2] and in experiment [3] was 5.03 throughout.
Take `CC(C)=CCc1c2c(c(O)c3c1O[C@]14C(=C[C@@H]5C[C@H]1C(C)(C)OC4(CC=C(C)C)C5=O)C3=O)C=CC(C)(CCC(C)C)O2` (stereo not given in full): the pIC50 in experiment [2] and in [3] was 5.22 each time.
Take `CC1OC(OC2C(Oc3c4cc5cc3Oc3ccc(cc3Cl)[C@H](O)[C@H]3NC(=O)[C@@H](NC(=O)[C@H]5NC(=O)[C@@H](CC(N)=O)NC(=O)[C@@H](NC(=O)[C@@H](N)CO)[C@@H](O)c5ccc(c(Cl)c5)O4)c4ccc(O)c(c4)-c4c(O)cc(O)cc4[C@H](C(=O)NCC(=O)O)NC3=O)OC(CO)C(O)C2O)CC(C)(NCc2cccc(OCC/C=C\COc3cccc(CNC4(C)CC(OC5C(Oc6c7cc8cc6Oc6ccc(cc6Cl)[C@@H](O)[C@@H](NC(=O)[C@H](N)CO)C(=O)N[C@@H](CC(N)=O)C(=O)N[C@H]8C(=O)N[C@H]6C(=O)N[C@H](C(=O)N[C@H](C(=O)NCC(=O)O)c8cc(O)cc(O)c8-c8cc6ccc8O)[C@H](O)c6ccc(c(Cl)c6)O7)OC(CO)C(O)C5O)OC(C)C4O)c3)c2)C1O` (stereo not given in full): the minimal inhibitory concentration (MIC) – broadly, the lowest concentration found to suppress growth – in experiment [5] was found to be 0.25 µg/mL (≈ 0.0779 µM).
Take `O=C(N[C@@H]1CNCCC[C@H]1OC(=O)c1cc(O)c(C(=O)c2ccccc2C(=O)O)c(O)c1)c1ccc(O)cc1`: the results for the Ki in experiment [6] and in [7] were 0.64 µM and 0.0039 µM, respectively.
For the compound `O=C(N[C@@H]1CNCCC[C@H]1OC(=O)c1ccc(C(=O)c2c(O)cccc2C(=O)O)cc1)c1ccc(O)cc1`, the Ki (commonly the dissociation constant of the complex between target and ligand, obtained from inhibition or displacement) in [6] worked out at 0.08 µM; in experiment [7], 0.0034 µM.
As for `CCCCC/C=C\C/C=C\C1(/C=C\C2(/C=C\CCCC(=O)O)CC2)CC1`, in experiment [8], the Inhibition (commonly the relative decrease from the control value, in per cent) was 5%.
The compound `CCCCC/C=C\C/C=C\C/C=C\C1(/C=C\CCCC(=O)O)CC1` gave an Inhibition in [8] of 8%.
In experiment [1], `COC[C@@H](C[C@H]1O[C@@](O)([C@H](O)[C@@H]2C[C@H](OC)[C@@H](O)CC/C=C(C)/C=C/[C@@H](O[C@@H]3O[C@@H](C)[C@H](OC)[C@@H](O)[C@@H]3O)[C@H](C)/C=C(C)/C=C(C)/C=C(\C)C(=O)O2)[C@H](C)[C@@H](O)[C@H]1C)OC1C[C@](C)(O)[C@@H](O[C@H]2C[C@@H](OC)[C@H](O)[C@@H](C)O2)[C@H](C)O1` (stereo not given in full) [APOPTOLIDIN] gave a pIC50 of 3.62.
With `CC1(C)C=Cc2cc(-c3ccco3)cc(/C=C(/C#N)c3ccc(O)cc3)c2O1`, the MIC in experiment [9] and in experiment [9] (setting [12]) was 2 µg/mL (≈ 5.41 µM) each time.
Take `CO[C@@]12C=C3C(=O)O[C@]4(O[C@]35[C@@H](C1)C(C)(C)OC5(CC=C(C)C)C2=O)C(=O)C1=C(C=CC(C)(C)O1)C(=O)C4CC=C(C)C` (stereo not given in full) [1-O-METHYLLATERIFLORONE]: the pIC50 in experiment [10] was 4.60.
For the compound `CC1(C)C=Cc2cccc(/C=C(/C#N)c3ccc(O)cc3)c2O1`, the MIC in experiment [11] and in [11] (setting [12]) was 12 µg/mL (≈ 39.6 µM) throughout.
`CCCCC/C=C\C1(/C=C\C2(/C=C\C3(/C=C\CCCC(=O)O)CC3)CC2)CC1` gave an Inhibition in experiment [8] of 10%.
Compound `CC(C)C[C@H]1NC(=O)[C@H](Cc2ccccc2)NC(=O)CNC(=O)[C@H](C)NC(=O)[C@H](Cc2ccc(O)cc2)NC(=O)/C=C\c2ccccc2OCOC1=O` showed an MIC in experiment [5] of 0.25 µg/mL (≈ 0.343 µM).
In [10], `COC1(OC)C2=C(OC(C)(C)C=C2)C(=O)[C@@H](OC(=O)C2=C[C@]3(OC)C[C@H]4C(C)(C)OC(CC=C(C)C)(C3=O)[C@]24O)[C@@H]1CC=C(C)C` showed a pIC50 of 5.05.
